Data taken from ChEMBL document CHEMBL5137044, “Expansion of the S-CN-DABO scaffold to exploit the impact on inhibitory activities against the non-nucleoside HIV-1 reverse transcriptase” (Eur J Med Chem, 2022).

What was measured:
[1] = system: Human immunodeficiency virus 1; experiment: Antiviral activity against […] HIV-1 infected in human MT4 cells assessed as reduction in virus-induced cytopathic effect incubated for 5 days by MTT assay; type: functional, organism-based; details: Human immunodeficiency virus 1, MT4, 120 h
[2] = Cytotoxicity against human MT4 cells assessed as cell growth inhibition incubated for 5 days by MTT assay; type: toxicity, cell-based; details: time 5 day
[3] = Selectivity index, ratio of CC50 for human MT4 cells to EC50 for antiviral activity against NNRTI resistant HIV-1 infected in human MT4 cells; type: toxicity, cell-based; details: read-out: Ratio CC50/EC50
[4] = system: Human immunodeficiency virus 1; experiment: Antiviral activity against drug-resistant HIV-1 L100I mutant infected in human MT4 cells assessed as reduction in virus-induced cytopathic effect incubated for 5 days by MTT assay; type: functional, organism-based; details: Human immunodeficiency virus 1, L100I mutant, MT4, 120 h
[5] = system: Human immunodeficiency virus 1; experiment: Antiviral activity against drug-resistant HIV-1 K103 N mutant infected in human MT4 cells assessed as reduction in virus-induced cytopathic effect incubated for 5 days by MTT assay; type: functional, organism-based; details: Human immunodeficiency virus 1, K103 N mutant, MT4, 120 h
[6] = system: Human immunodeficiency virus 1; experiment: Antiviral activity against drug-resistant HIV-1 Y181C mutant infected in human MT4 cells assessed as reduction in virus-induced cytopathic effect incubated for 5 days by MTT assay; type: functional, organism-based; details: Human immunodeficiency virus 1, Y181C mutant, MT4, 120 h
[7] = system: Human immunodeficiency virus 1; experiment: Antiviral activity against drug-resistant HIV-1 Y188L mutant infected in human MT4 cells assessed as reduction in virus-induced cytopathic effect incubated for 5 days by MTT assay; type: functional, organism-based; details: Human immunodeficiency virus 1, Y188L mutant, MT4, 120 h
[8] = system: Human immunodeficiency virus 1; experiment: Antiviral activity against drug-resistant HIV-1 E138K mutant infected in human MT4 cells assessed as reduction in virus-induced cytopathic effect incubated for 5 days by MTT assay; type: functional, organism-based; details: Human immunodeficiency virus 1, E138K mutant, MT4, 120 h
[9] = target: Human immunodeficiency virus type 1 reverse transcriptase (Human immunodeficiency virus 1, UniProt Q72547); experiment: Inhibition of recombinant wild-type p66/p51 HIV-1 reverse transcriptase incubated for 40 mins by picogreen dye-based spectrofluorometric analysis
[10] = Fold resistance, ratio of EC50 for antiviral activity against drug-resistant HIV-1 L100I mutant infected in human MT4 cells to EC50 for antiviral activity against […] HIV-1 infected in human MT4 cells; type: functional
[11] = Fold resistance, ratio of EC50 for antiviral activity against drug-resistant HIV-1 K103 N mutant infected in human MT4 cells to EC50 for antiviral activity against […] HIV-1 infected in human MT4 cells; type: functional
[12] = Fold resistance, ratio of EC50 for antiviral activity against drug-resistant HIV-1 Y181C mutant infected in human MT4 cells to EC50 for antiviral activity against […] HIV-1 infected in human MT4 cells; type: functional
[13] = Fold resistance, ratio of EC50 for antiviral activity against drug-resistant HIV-1 Y188L mutant infected in human MT4 cells to EC50 for antiviral activity against […] HIV-1 infected in human MT4 cells; type: functional
[14] = Fold resistance, ratio of EC50 for antiviral activity against drug-resistant HIV-1 E138K mutant infected in human MT4 cells to EC50 for antiviral activity against […] HIV-1 infected in human MT4 cells; type: functional

Row | Compound | EC50 [1] [µM] | CC50 at 120 h [2] [µM] | selectivity ratio [3] | EC50 [4] [µM] | EC50 [5] [µM] | EC50 [6] [µM] | EC50 [7] [µM] | EC50 [8] [µM] | IC50 [9] [µM] | Ratio EC50 [10] | Ratio EC50 [11] | Ratio EC50 [12] | Ratio EC50 [13] | Ratio EC50 [14]
1 | COc1cc(OC)cc(C(C#N)c2nc(SC(C)C)[nH]c(=O)c2C)c1 (stereo unspecified) | 0.67 | 41.1 | 61 | 3.36 | > 41.1 | > 41.1 | > 41.1 | 2.54 | 2.58 | 5 | >61 | >61 | >61 | 4
2 | Cc1c(C(C#N)c2ccc(F)c(C#N)c2)nc(SC(C)C)[nH]c1=O (stereo unspecified) | 21.4 | 164 | 8 | 57 | > 164 | > 164 | > 164 | 41.9 | 83.8 | 3 | >8 | >8 | >8 | 2
3 | Cc1c(C(C#N)c2ccc(Br)cc2)nc(SC(C)C)[nH]c1=O (stereo unspecified) | 0.67 | 47.1 | 71 | > 10.3 | > 47.1 | > 47.1 | > 47.1 | 1.25 | 1.78 | >15 | >70 | >70 | >70 | >2
4 | COc1ccc(C(C#N)c2nc(SC(C)C)[nH]c(=O)c2C)cc1 (stereo unspecified) | 2.92 | 37.1 | 13 | 9.7 | > 37.1 | > 37.1 | > 37.1 | 4.29 | 20.7 | 3 | >13 | >13 | >13 | 1
5 | COc1cccc(C(C#N)c2nc(SC(C)C)[nH]c(=O)c2C)c1 (stereo unspecified) | 0.138 | 176 | 1280 | 2.78 | 28.2 | 5.82 | 62 | 0.36 | 1.06 | 20 | 205 | 42 | 450 | 3
6 | Cc1c(C(C#N)c2cccc(C(F)(F)F)c2)nc(SC(C)C)[nH]c1=O (stereo unspecified) | 1.06 | 69.2 | 65 | 12.1 | > 60.4 | 9.98 | > 69.2 | 2.71 | 2.71 | 11 | >57 | 9 | >65 | 3
7 | Cc1ccc(C(C#N)c2nc(SC(C)C)[nH]c(=O)c2C)cc1 (stereo unspecified) | 0.32 | 12.8 | 40 | > 12.9 | > 12.9 | > 12.9 | > 12.9 | 0.63 | 0.667 | >40 | >40 | >40 | >40 | 2
8 | Cc1c(C(C#N)c2c(Cl)cccc2Cl)nc(SC(C)C)[nH]c1=O (stereo unspecified) | 0.083 | 62.2 | 749 | 3.38 | 6.13 | 3.99 | > 62.2 | 0.22 | 0.466 | 41 | >74 | 48 | >750 | 3
9 | Cc1ccccc1C(C#N)c1nc(SC(C)C)[nH]c(=O)c1C (stereo unspecified) | 0.116 | 111 | 960 | 3.23 | 48.2 | 5.52 | 63.4 | 0.26 | 0.68 | 28 | 416 | 48 | 546 | 2
10 | Cc1c(C(C#N)c2cccc(Cl)c2)nc(SC(C)C)[nH]c1=O (stereo unspecified) | 0.35 | 172 | 493 | 11.2 | 50.3 | 7.27 | > 69.7 | 0.87 | 0.713 | 32 | 144 | 21 | >199 | 2
11 | COc1ccccc1C(C#N)c1nc(SC(C)C)[nH]c(=O)c1C (stereo unspecified) | 0.04 | > 379 | > 9380 | 0.4 | 3.51 | 1.91 | 27.5 | 0.09 | 0.158 | 10 | 88 | 48 | 687 | 2
12 | COc1cc(F)cc(C(C#N)c2nc(SC(C)C)[nH]c(=O)c2C)c1 (stereo unspecified) | 0.123 | 161 | 1310 | 3.94 | 23.1 | 5.23 | 54.4 | 0.35 | 0.236 | 32 | 188 | 43 | 442 | 3
13 | Cc1c(C(C#N)c2cccnc2Cl)nc(SC(C)C)[nH]c1=O (stereo unspecified) | 1.14 | 251 | 221 | 23.8 | 53.6 | > 60.9 | > 251 | 1.56 | 13.1 | 21 | 47 | >53 | >221 | 1
14 | Cc1c(C(C#N)c2ccccc2Br)nc(SC(C)C)[nH]c1=O (stereo unspecified) | 0.115 | 77.6 | 676 | 2 | 28.2 | 5.28 | 54 | 0.2 | 0.198 | 17 | 246 | 46 | 469 | 2
15 | Cc1c(C(C#N)c2cc(F)cc(Cl)c2)nc(SC(C)C)[nH]c1=O (stereo unspecified) | 0.38 | 139 | 363 | 19.1 | 47.2 | 12.5 | > 139 | 1.99 | 0.716 | 50 | 124 | 33 | >365 | 5
16 | Cc1c(C(C#N)c2ccccc2C(F)(F)F)nc(SC(C)C)[nH]c1=O (stereo unspecified) | 2.61 | 251 | 96 | 5.92 | > 67.6 | 10.1 | > 251 | 3.34 | 5.99 | 2 | >26 | 4 | >96 | 1
17 | Cc1c(C(C#N)c2ccc(Cl)nc2)nc(SC(C)C)[nH]c1=O (stereo unspecified) | 20.6 | 216 | 10 | 32.3 | 41.3 | 41.3 | > 216 | 28.6 | 203 | 2 | 2 | 2 | >10 | 1
18 | Cc1cccc(C(C#N)c2nc(SC(C)C)[nH]c(=O)c2C)c1 (stereo unspecified) | 0.141 | 167 | 1180 | 2.06 | 20.9 | 4.41 | 65.4 | 0.37 | 0.271 | 15 | 148 | 31 | 464 | 3
19 | Cc1c(C(C#N)c2ccc(C(C)C)cc2)nc(SC(C)C)[nH]c1=O (stereo unspecified) | 0.6 | 225 | 376 | 5.51 | > 225 | 10.2 | > 225 | 1.5 | 2.15 | 9 | >375 | 17 | >375 | 3
